Test results published in patent publication US10494453B2, “Conjugate compound and uses of same” (THE UNIVERSITY OF QUEENSLAND, priority 2013, dated 2019).
Like-named read-outs stand apart in the source and are kept apart here.

Tests used:
[1] = test system: MPCs; conditions: cited from earlier work; for Promotion of chondrogenesis of MPCs: absent growth factors or other chondroinductive supplements
[2] = test system: MPCs; assay: Live/dead staining of MPCs encapsulated in HA/PEG hydrogels; format: cell-based, human; conditions: HA/PEG hydrogels containing the substance; 24 hrs and 7 days
Experimental: (§1) MPCs (P4-6) were encapsulated in gels containing 15 mg/ml HATYR, 16.5 mg/ml PEGHPA. 0.25 U/ml horseradish peroxidase (HRP) and varying amounts of hydrogen peroxide (H2O2). Soluble PPS was added into the gels prior to crosslinking at a final concentration of 5 μg/ml. HA-PPS and HA-PPSCOOH were incorporated at concentrations of 16 μg/ml and 9 μg/ml respectively giving a concentration of PPS equivalent to 5 μg/ml unbound PPS.
(§2) MPCs were resuspended to a concentration of 5×10^6 cells/ml in solution containing all of the components except H2O2 and thoroughly mixed. Crosslinking was then initiated by the addition of H2O2 and the gels spotted out into lowbinding tissue culture plates. After 15 minutes, growth media was added to the well and the cell/gel composites cultured for up to 21 days with media changes every 3-4 days.

[3] = test system: MPCs; assay: DMMB assay for GAG content of chondrogenic MPC pellets; format: cell-based, human
Experimental: (§3) Chondrogenic differentiation was compared for MPCs cultured in maintenance medium and treated with PPS, HA, HA-PPS and HA-PPSCOOH at concentrations equivalent to 5, 10 and 20 μg/ml unbound PPS. These factors were added to the cells prior to pellet formation, which was initiated by centrifuging 2×105 MPCs in a non-adherent U-bottom plate at 500 g for 10 min. MPC pellets were cultured in […] medium with media changes every 3-4 days. After 21 days, samples were taken for analysis by histological staining, DMMB assay and qPCR.
Chondrogenic pellets were collected, rinsed in PBS and lysed in 1 mg/ml Papain in 100 mM sodium phosphate, 5 mM EDTA and 5 mM L-cystein (pH 6.5) overnight at 60° C. Samples of 40 μl were plated in triplicate with the addition of 10 μl 1% BSA in PBS and 50 μl 2×1,9-dimethylmethylene blue (DMMB). These were incubated at room temperature for 15 min and the absorbance at 525 nm read using a Spectramax M5 Fluorometer (Molecular Devices). Samples were normalized to DNA content as assessed by PicoGreen assay (Molecular Probes: performed according to the manufacturer's instructions).

[4] = Rheological characterisation of PEG/HA hydrogels; format: physicochemical; conditions: incorporated into PEG/HA hydrogel
Experimental: All rheological measurements were obtained using an AR G2 rheometer (TA Instruments, New Castle, Del.) in oscillatory mode using a 20 mm diameter stainless steel flat plate and lower Teflon Pelletier surface. The gels were synthesized and, upon addition of the H2O2, immediately vortexed and loaded between the plates of the rheometer with a gap measurement of 1000 μm. Gelation kinetics and final moduli were determined by timesweeps at 37° C., conducted with a controlled strain of 1% and an angular frequency of 6.28 rad/sec. Frequency sweeps were performed between 5.000E-3 to 50 rad/sec at 1% strain. Stress sweeps confirmed that this was within the linear viscoelastic region.

[5] = test system: MPCs; assay: Collagen-II immunofluorescence of MPC/hydrogel composites; format: cell-based, human; conditions: compared to gels alone
Experimental: as §1, §2
Samples were fixed in 4% paraformaldehyde for 20 min and rinsed with PBS. To detect Collagen-II, the samples were digested with 0.01% pepsin (w/v) in 0.01M HCL (pH2) for 30 min at 37° C. and incubated in 0.1% Triton-X-100 for […] at RT° C. before blocking in 2% BSA/2% goat serum for 1 hr. A Collagen-II antibody (Abram ab3092) was used at a dilution of 1/50 for 2 hrs followed by incubation with an AlexFluor 488-conjugated secondary antibody for 1 hr. […]

[6] = test system: MPCs; assay: qPCR gene expression of MPC pellets (chondrogenic differentiation); format: cell-based, human; conditions: for Expression of BMP13: over untreated controls
Experimental: (§4) Stro1-selected human MPCs were prepared by Lonza (Walkersville, USA) for Mesoblast Ltd (Melbourne, Australia) according to the isolation procedure described by Gronthos et al. MPCs were cultured in alphaMEM supplemented with 100 U/ml penicillin, 100 μg/ml streptomycin (Gibco/Invitrogen Carlsbad, Calif., USA), 10% batch tested foetal bovine serum (FBS), 2 mM L-Glutamine, 1 mM Sodium Pyruvate, and 100 μM L-ascorbate-2-Phosphate. Tissue culture flasks were maintained at 37° C. in 5% CO2 in an atmosphere with 95% humidity. Upon reaching 70% confluence MPCs were passaged, replating at 2000 cells/cm2.
as §3
Total RNA was extracted using an RNeasy Minikit with on-column DNase treatment (Qiagen) according to the manufacturer's instructions, cDNA was synthesized from 250 ng RNA, or the equivalent volume of DNase and RNasefree water for no-RT controls, using the SuperScript® III First-Strand Synthesis System (Invitrogen). qPCR reactions were set-up in a total volume of 10 μl with 1× Platinum SYBR Green qPCR SuperMix-UDG (Invitrogen) and 0.2 μM forward and reverse primers. A 7500 Fast Real-Time PCR System (Applied Biosystems) with fast cycling parameters of 2 min at 50° C., 2 min at 95° C. then 40 cycles of 3 sec at 95° C. and 30 sec at 60° C. followed by a melt curve was used to run the samples. Data was analysed using the 2-^ΔΔct method and normalized back to untreated monolayer levels.

[7] = Swelling of hydrogels; format: physicochemical; conditions: incorporated into the hydrogels; p<0.05
Experimental: To determine the degree of swelling, 50 μl gels were synthesized and the dry weight obtained after freeze-drying for 24 hrs (Wd). The gels were then incubated in 500 μl PBS for 24 hrs at […]. The PBS was removed and the gels reweighed (Ws). The degree of swelling was determined by ((Ws-Wd)/Wd) using triplicate gels for each condition. Degradation of 50 μl gels was measured over a period of 3 months using triplicate samples for each condition. After synthesis, the gels were incubated in PBS/0.01% Sodium azide at 37° C. with weekly changes of buffer. At specific tirnepoints all excess PBS was removed and the gels weighed. The degree of degradation was expressed as a % of the original gel mass.

[8] = test system: MPCs; assay: CCK8 assay of MPC proliferation; format: cell-based, human; conditions: 7 days; concentrations equivalent to 5, 10 and 20 μg/ml unbound PPS
Experimental: as §4
MPCs were seeded at a density of 2000 cells/cm2 in a 96-well plate and allowed to adhere for 4 hrs at which point the medium was exchanged for MPC maintenance medium supplemented with PPS, HA, HA-PPS and HA-PPSCOOH at concentrations equivalent to 5, 10 and 20 μg/ml unbound PPS. MPCs were cultured for 7 days with media changes every 2-3 days and the cell number determined by CCK8 assay (Sigma). Briefly, the culture medium was replaced with 100 μl MPC maintenance medium (without phenol red) containing 10% (v/v) CCX8. After 2 hrs the absorbance was read at 450 nm. All samples were performed in triplicate and normalised to blank medium without cells.

[9] = absence of differentiation factors

## heparin
[1]
  Promotion of chondrogenesis of MPCs: did not show any success

## pentosan polysulfate [PPS]
[1]
  Promotion of chondrogenesis of MPCs: induced the in vitro proliferation and chondrogenic differentiation of MPCs
[2]
  Viability of encapsulated MPCs: retained good viability
[3]; % of untreated pellets, after 21 days, no additional chondrogenic factors
  GAG content (DMMB assay): 150%
[4]
  Gelation process of hydrogel: slows the gelation process
  Resulting modulus of hydrogel: small decrease in resulting modulus
[5]
  Deposition of collagen-II around encapsulated MPCs: increased
[6]; absence of any differentiation factors, vs untreated controls
  Expression of osteogenic transcription factor Runx2: small but significant decrease
[6]; [9]
  Expression of the BMP antagonist Noggin: decreased
  Expression of BMP13: significantly increased
[7]
  Change in swelling of hydrogel: decreased

## dextran sulphate
[1]
  Promotion of chondrogenesis of MPCs: did not show any success

## hyaluronic acid [HA]
[8]
  MPC proliferation (CCK8 assay): did not have this effect
[1]; higher concentrations
  Proteoglycan (PG) synthesis by MPCs: inhibited PG synthesis
[1]; low concentrations
  Proteoglycan (PG) synthesis by MPCs: showed some stimulation
[3]; exposure of MPCs to substance alone
  GAG production by MPCs: did not produce any increase in GAG production
[6]; [9]
  Expression of BMP13: no effect
